Measurements from publication PMC5787524, “Discovery of a FLT3 inhibitor LDD1937 as an anti-leukemic agent for acute myeloid leukemia” (Oncotarget, 2017).
“Also recorded” adds a separate entry of the source.

Columns and labels:
[1] = Parallel artificial membrane permeability (PAMPA) assay; format: in vitro ADME
[2] = test system: MV-4-11 xenograft; test: MV-4-11 mouse tumor xenograft; format: in vivo, BALB/c nu/nu mice
Procedure: MV-4-11 cells were inoculated subcutaneously in the flank of female BALB/c nu/nu (athymic nude) mice (5 × 10^6 cells per mouse). […] The drug or the control PBS was administered daily for a duration of 21 days. Tumor sizes were measured twice a week for 21 days, and the tumor volumes were calculated with the following formula: V (volume) = X (length) × D (width)^2/2. After 21 days, the mice were sacrificed, and the tumor weights were measured.

[3] = molecular target: T1, IRAK4 (Homo sapiens, UniProt Q9NWZ3); test: In vitro IRAK4 kinase assay (LANCE Ultra); format: biochemical
T1 sequence (Q9NWZ3 1-460): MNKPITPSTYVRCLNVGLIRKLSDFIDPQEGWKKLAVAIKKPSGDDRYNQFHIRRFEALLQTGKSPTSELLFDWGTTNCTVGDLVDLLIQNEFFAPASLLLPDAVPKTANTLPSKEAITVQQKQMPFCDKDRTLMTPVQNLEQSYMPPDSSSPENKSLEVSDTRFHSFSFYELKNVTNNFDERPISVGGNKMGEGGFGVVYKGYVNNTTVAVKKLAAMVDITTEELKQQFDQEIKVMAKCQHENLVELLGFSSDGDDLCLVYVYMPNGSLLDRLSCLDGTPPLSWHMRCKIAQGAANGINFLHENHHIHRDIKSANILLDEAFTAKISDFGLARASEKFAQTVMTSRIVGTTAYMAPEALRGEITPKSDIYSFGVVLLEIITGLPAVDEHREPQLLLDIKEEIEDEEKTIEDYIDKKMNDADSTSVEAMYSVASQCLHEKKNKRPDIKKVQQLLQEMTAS
Procedure: The in vitro kinase assay for IRAK4 was done with the LANCE Ultra Kinase Activity Assay (Perkin Elmer) containing the ULight-p70S6K (Thr389) peptide (phosphorylation motif […]). The assays consisted of the enzyme mixed with serially diluted compounds, 50 nM ULight-p70S6K (Thr389) peptide, and 500 μM ATP prediluted in kinase buffer (50 mM HEPES (pH 7.5), 10 mM MgCl2, 1 mM EGTA, 2 mM DTT, and 0.01% Tween20). Ten microliters of the total volume of the kinase reaction were added to the wells of a 96-well assay plate. The kinase reactions were incubated for 90 min. at 25°C and stopped by the addition of 10 mM EDTA. For the detection of the phospho-substrate, the Eu-anti-phospho-p70S6K (Thr389) antibody diluted in detection buffer was added to a final concentration of 2 nM, and the reactions were then incubated for 1 h at 25°C. The signal was measured on an EnVision multi-label reader.

[4] = test system: MV-4-11 cells; test: Cell cycle analysis by PI flow cytometry; format: cell-based, human; conditions: 24 h
Procedure: For cell cycle analysis, cells were seeded in a 10 cm plate (2 × 10^6 cells per well) and treated with the LDD1937 compound. Then, the cells were fixed with ethanol and treated with RNase A (4 mg/mL) and stained with propidium iodide (PI) (Sigma Co). Cell cycle distribution was analyzed by flow cytometry with an Accuri C6 flow cytometer.

[5] = test system: phosphorylated STAT5 in MV-4-11 cells; test: STAT5 phosphorylation western blot; format: cell-based, human; conditions: MV-4-11, 4 h
Procedure: Cells were lysed in SDS Lysis buffer (12 mM Tris-Cl, pH 6.8, 5% glycerol, and 0.4% SDS), and the protein concentrations were measured with the SMART BCA Protein Assay kit (iNtRON Biotechnology, Korea). The proteins were resolved with SDS-polyacrylamide gel electrophoresis followed by transfer to PVDF membranes (Millipore, Billerica, MA, USA) and incubated overnight with the appropriate antibodies. The antibodies used were as follows: phospho-STAT5 (p-STAT5; rabbit polyclonal IgG; #9351, 1:1,000), cyclin D1 (rabbit polyclonal IgG; #2922, 1:1,000), and PARP (rabbit polyclonal IgG; #9542, 1:1,000) from Cell Signaling Technology (Danver, MA, USA), STAT5 (rabbit polyclonal IgG; #sc-835, 1:1,000) from Santa Cruz (Santa Cruz, CA, USA), and β-actin (mouse monoclonal IgG; # A5441, 1:5000) from Sigma-Aldrich. Goat anti-rabbit IgG (#111-035-003; 1;5,000) and anti-mouse IgG (#115-035-033; 1:5,000) secondary antibodies were obtained from Jackson ImmunoResearch Laboratories, Inc. (West Grove, PA, USA).

[6] = test system: MV-4-11 cells; test: TUNEL assay; format: cell-based, human; conditions: 100 nM, 24 h
Procedure: For the terminal deoxynucleotidyl transferase dUTP nick end labeling (TUNEL) assay, the APO-DIRECT Kit (BD Biosciences, San Diego, CA, USA) was used. Briefly, 2 × 10^6 cells were harvested and fixed in 2% formaldehyde/PBS solution for 30 min. on ice. The fixed cells were washed twice with PBS and stored in 1 ml of 70 % ethanol at –20°C until use. After washing with wash buffer, the cells were incubated in DNA Labeling Solution (reaction buffer, TdT Enzyme, and FITC dUTP) for 60 min. at 37°C. After labelling, the cells were washed twice with rinse buffer. The cells were incubated with 200 µg/ml RNase A and 5 µg/ml PI for an additional 30 min at room temperature. […] was measured with an Accuri C6 flow cytometer.

COC(=O)c1ccc2c(c1)/C(=C1/Nc3ccccc3/C1=N\OCCN1CCNCC1)C(=O)N2.Cl.Cl [LDD1937, methyl (2Z,3E)-2′-oxo-3-((2-(piperazin-1-yl)ethoxy)imino)-[2,3′-biindolinylidene]-5′-carboxylate dihydrochloride]
PAMPA assay result [1]: –4.49 ± 0.140 | PAMPA level of permeability [1]: medium level of permeability | tumor weight ([2]; 5 mg/kg intravenous daily, day 21, vs control): significant reduction | tumor volume / tumor mass ([2]; 10 mg/kg intravenous daily for 21 days): the tumor disappeared from day 3; also recorded: completely disappear from day 3 | body weight ([2]; 5 and 10 mg/kg intravenous daily, administration period, between groups): no significant difference in body weight | tumor volume and weight ([2]; 5 and 10 mg/kg intravenous, vs control): significantly reduced | IC50 [3]: 300 nM | G0/G1 Percent ([4]; 10 nM): 54.4% | Sub-G1 Percent ([4]; 100 nM): 31.3% | phosphorylated STAT5 ([5]; 1 nM): a reduction in the phosphorylated STAT5 was observed | phospho-STAT5 band ([5]; 0.1 µM): completely disappeared | TUNEL positive cell population [6]: 32.1%
